Reference: the NIST ThermoML archive (doi:10.1016/j.fluid.2016.02.031)
± gives the expanded uncertainty stated by the source.

Assays:
[1] = xn = mol fraction of the nth substance listed; settings: 100 kPa, Liquid, x2 = 0; for viscosity: Concentric cylinders viscometry; for mass density: Vibrating tube method
[2] = refractive index (Na D-line) (dimensionless); xn = mol fraction of the nth substance listed; settings: 100 kPa, Liquid, Standard Abbe refractometry, x2 = 0

Which results are given for `CCC(C)=O` [butanone] + c1ccncc1?
viscosity ([1]; 288.15 K): 0.4308 ± 0.0065 mPa·s; mass density ([1]; 288.15 K): 810.067 ± 0.2 kg/m3; viscosity ([1]; 293.15 K): 0.4152 ± 0.0064 mPa·s; mass density ([1]; 293.15 K): 804.863 ± 0.2 kg/m3; viscosity ([1]; 298.15 K): 0.3992 ± 0.0062 mPa·s; mass density ([1]; 298.15 K): 799.632 ± 0.21 kg/m3; viscosity ([1]; 303.15 K): 0.3826 ± 0.0061 mPa·s; mass density ([1]; 303.15 K): 794.371 ± 0.21 kg/m3; viscosity ([1]; 308.15 K): 0.3665 ± 0.0059 mPa·s; mass density ([1]; 308.15 K): 789.078 ± 0.21 kg/m3; viscosity ([1]; 313.15 K): 0.3499 ± 0.0058 mPa·s; mass density ([1]; 313.15 K): 783.752 ± 0.21 kg/m3; viscosity ([1]; 318.15 K): 0.3336 ± 0.0057 mPa·s; mass density ([1]; 318.15 K): 778.389 ± 0.21 kg/m3; viscosity ([1]; 323.15 K): 0.3174 ± 0.0055 mPa·s; mass density ([1]; 323.15 K): 772.985 ± 0.21 kg/m3; viscosity ([1]; 328.15 K): 0.3001 ± 0.0054 mPa·s; mass density ([1]; 328.15 K): 767.539 ± 0.21 kg/m3; viscosity ([1]; 333.15 K): 0.2829 ± 0.0052 mPa·s; mass density ([1]; 333.15 K): 762.048 ± 0.21 kg/m3; refractive index ([2]; 288.15 K): 1.38157 ± 0.00035; refractive index ([2]; 293.15 K): 1.37901 ± 0.00035; refractive index ([2]; 298.15 K): 1.37642 ± 0.00035; refractive index ([2]; 303.15 K): 1.37386 ± 0.00035; refractive index ([2]; 308.15 K): 1.37125 ± 0.00035; refractive index ([2]; 313.15 K): 1.36857 ± 0.00035; refractive index ([2]; 318.15 K): 1.36589 ± 0.00035; refractive index ([2]; 323.15 K): 1.36315 ± 0.00035; refractive index ([2]; 328.15 K): 1.36042 ± 0.00035; refractive index ([2]; 333.15 K): 1.35746 ± 0.00035

Which viscosity ([1]; 288.15 K) does the source give for `CCC(C)=O` [butanone] + OCCCO here?
The viscosity was 0.4308 ± 0.0065 mPa·s.

What about the mass density ([1]; 288.15 K) of the same compound?
The mass density was 810.067 ± 0.2 kg/m3.

And the viscosity ([1]; 293.15 K)?
The viscosity was 0.4152 ± 0.0064 mPa·s.

What about the mass density ([1]; 293.15 K) of the same compound?
Its mass density is 804.863 ± 0.2 kg/m3.

And the viscosity ([1]; 298.15 K)?
The viscosity was 0.3992 ± 0.0062 mPa·s.

And the mass density ([1]; 298.15 K)?
Its mass density is 799.632 ± 0.21 kg/m3.

What about the viscosity ([1]; 303.15 K) of the same compound?
Its viscosity is 0.3826 ± 0.0061 mPa·s.

What about the mass density ([1]; 303.15 K) of the same compound?
The mass density was 794.371 ± 0.21 kg/m3.

And the viscosity ([1]; 308.15 K)?
Its viscosity is 0.3665 ± 0.0059 mPa·s.

What about the mass density ([1]; 308.15 K) of the same compound?
Its mass density is 789.078 ± 0.21 kg/m3.

What about the viscosity ([1]; 313.15 K) of the same compound?
The viscosity was 0.3499 ± 0.0058 mPa·s.

And the mass density ([1]; 313.15 K)?
Its mass density is 783.752 ± 0.21 kg/m3.

What about the viscosity ([1]; 318.15 K) of the same compound?
Its viscosity is 0.3336 ± 0.0057 mPa·s.

What about the mass density ([1]; 318.15 K) of the same compound?
Its mass density is 778.389 ± 0.21 kg/m3.

What about the viscosity ([1]; 323.15 K) of the same compound?
Its viscosity is 0.3174 ± 0.0055 mPa·s.

What about the mass density ([1]; 323.15 K) of the same compound?
Its mass density is 772.985 ± 0.21 kg/m3.

And the viscosity ([1]; 328.15 K)?
Its viscosity is 0.3001 ± 0.0054 mPa·s.

What about the mass density ([1]; 328.15 K) of the same compound?
Its mass density is 767.539 ± 0.21 kg/m3.

And the viscosity ([1]; 333.15 K)?
The viscosity was 0.2829 ± 0.0052 mPa·s.

What about the mass density ([1]; 333.15 K) of the same compound?
The mass density was 762.048 ± 0.21 kg/m3.

And the refractive index ([2]; 288.15 K)?
Its refractive index is 1.38157 ± 0.00035.

What about the refractive index ([2]; 293.15 K) of the same compound?
The refractive index was 1.37901 ± 0.00035.

And the refractive index ([2]; 298.15 K)?
Its refractive index is 1.37642 ± 0.00035.

And the refractive index ([2]; 303.15 K)?
Its refractive index is 1.37386 ± 0.00035.

And the refractive index ([2]; 308.15 K)?
Its refractive index is 1.37125 ± 0.00035.

And the refractive index ([2]; 313.15 K)?
Its refractive index is 1.36857 ± 0.00035.

What about the refractive index ([2]; 318.15 K) of the same compound?
Its refractive index is 1.36589 ± 0.00035.

What about the refractive index ([2]; 323.15 K) of the same compound?
Its refractive index is 1.36315 ± 0.00035.

What about the refractive index ([2]; 328.15 K) of the same compound?
Its refractive index is 1.36042 ± 0.00035.

What about the refractive index ([2]; 333.15 K) of the same compound?
Its refractive index is 1.35746 ± 0.00035.
